Data reported in patent publication US12691065B2, “Liposome formulations for treatment of cancers and drug resistance of cancers” (NanoTech Pharma Inc., priority 2020, dated 2026).

How the values were obtained:
[1] = system: MDA-MB-231(R) cells; assay: MTT cytotoxicity of DOX on MDA-MB-231 versus MDA-MB-231(R); type: cell-based, human; settings: 48-hour DOX treatment, each dose level
Source text: Doxorubicin resistant cell lines of MDA-MB-231 and MCF-7 were developed in house. The resistant variants were generated by repeatedly culturing MDA-MB-231 and MCF-7 cells in the presence of 0.2 μmol/L DOX. These cells that proliferated well in the presence of doxorubicin after several passages qualified as DOX-resistant MDA-MB-231 and MCF-7 cells, which were named as MDA-MB-231(R) and MCF-7(R) cell lines, respectively. Both MDA-MB-231(R) and MCF-7(R) cell lines were characterized against non-DOX treated MDA-MB-231 and MCF-7 cell lines.
The cell seeded plate was incubated for 24 hours at 37° C. and 5% CO2 in a standard cell culture incubator before drug treatment. […] After another 24 hours of incubation, cell viability was assessed by the MTT assay following the manufacture's protocols. Relative percent survival was determined by subtracting absorbance values obtained by media-only wells from drug treated wells and then normalizing to the no-drug control wells (cell only control). The fraction of cells affected (Fa), or cell growth inhibition (%) at each drug concentration was subsequently calculated for each well. The effect of drug combinations was then calculated and processed by a software CompuSyn for drug synergy analysis. The program employs the median-effect analysis algorithm, which produces the Combination Index (CI) value as a quantitative indicator of the degree of synergy. […]

[2] = In-vivo pharmacokinetic study, intravenous; settings: free drug solution, CD-1 mice
Source text: After intravenous administration, blood was collected at multiple time points for a week by cardiac puncture (3 mice per time point) and placed into EDTA coated micro containers. The samples were centrifuged to separate plasma, and plasma was transferred to another tube.

COc1cccc2c1C(=O)c1c(O)c3c(c(O)c1C2=O)C[C@@](O)(C(=O)CO)C[C@@H]3O[C@H]1C[C@H](N)[C@H](O)[C@H](C)O1.Cl [DOX, Doxorubicin hydrochloride]
cell viability of MDA-MB-231(R) compared to MDA-MB-231 [1]: markedly greater
half-life (T1/2) [2]: 30 min
